Tested on: 4-hydroxynonenal (4-HNE) in liver of C57BL/6J mice fed HFD
Assay: Hepatic 4-HNE immunofluorescence (protein carbonyls) in DIO mouse NASH model
Assay type: in vivo
Settings: 130 days
Experimental: Liver samples from C57BL/6J mice fed chow and treated with vehicle, C57BL/6J mice fed HFD and treated with vehicle, and C57BL/6J mice fed HFD and treated with APL, as described in Example 1, were prepared and stained with an anti-4HNE antibody from Abcam (catalog #ab46545) for immunofluorescent analysis of the presence of 4-HNE. The APL dosage, administration frequency, and duration of treatment were as described in Example 1 (APL dosage administered to each animal was 200 milligrams per kilogram of body weight divided in two dosages per day, via oral gavage; treatment duration of 130 days; animals fed ad libitum). The data are depicted in FIG. 10. FIG. 10A are representative images of 4-HNE immunofluorescence liver sections from C57BL/6J mice fed chow and treated with vehicle, C57BL/6J mice fed HFD and treated with either vehicle or APL (TB-019) at 20× or 63× magnification. FIG. 10B is a plot of the 4-HNE immunofluorescence intensity per tissue area.

NCCCNCCCC[C@H](N)C(=O)O [APL, (S)-2-amino-6-((3-aminopropyl)amino)hexanoic acid]
protein carbonyls in liver (4-HNE immunofluorescence intensity per tissue area), treated vs HFD vehicle (APL 200 mg/kg/day in two doses, oral gavage, ***p<0.001): reduced | 4-HNE immunofluorescence intensity per tissue area, treated vs negative control (chow vehicle) (APL 200 mg/kg/day): No statistical difference

Reference: patent US12465582B2, “(S)-2-amino-6-((3-aminopropyl)amino)hexanoic acid (APL) for use in the treatment of non-alcoholic steatohepatitis (NASH), liver inflammation, hepatocellular ballooning, liver fibrosis and steatosis” (Temple University—Of The Commonwealth System Of Higher …, priority 2020, dated 2025)
